Laboratory results from patent US20260132140A1, “IMIDAZOLYL-AMINO-PYRAZINE-CARBONITRILS AS CHK-1 INHIBITORS” (BenevolentAI Bio Limited, priority 2022, published 2026).
Like-named read-outs stand apart in the source and are kept apart here.

Tests used:
[1] = system: pChk1(Ser296) in SW620 cells; assay: pChk1(Ser296) sandwich ELISA, cell-based on-target kinase activity; details: Homo sapiens, read-out: SW620 pIC50 (converted)
Procedure: ELISA assays were performed as per the manufacturer's protocol. […] Selected compounds of the invention were tested as a 8-point concentration response up to a maximum concentration of either 1 μM, 3 μM or 10 μM. The percent (%) effect i.e. inhibition at each concentration of compound was calculated based on, and relative to, the amount of inhibition produced in the vehicle control and inhibited control wells contained within each plate.

GBM LN18 cells = assay: In vitro cell viability assay (Cell Titre Glo, 72 hours); assay type: cell-based; details: Homo sapiens, LN-18, read-out: LN18 pIC50 (converted)
Procedure: GBM LN18 cells were incubated with increasing concentrations of selected compounds of the invention for 72 hours prior to the measurement of ATP in metabolically viable cells with the Cell Titre® Glo Luminescent reagent. A 10-point concentration response curve up to a maximum concentration of 10 μM was tested.
The percent (%) effect i.e., inhibition at each concentration of compound was calculated based on, and relative to the amount of inhibition produced in the vehicle control and inhibited control wells contained within each plate.

human Chk1 kinase = molecular target: T1, human Chk1 kinase (Homo sapiens, UniProt O14757); assay: biochemical
T1 sequence (O14757 1-476): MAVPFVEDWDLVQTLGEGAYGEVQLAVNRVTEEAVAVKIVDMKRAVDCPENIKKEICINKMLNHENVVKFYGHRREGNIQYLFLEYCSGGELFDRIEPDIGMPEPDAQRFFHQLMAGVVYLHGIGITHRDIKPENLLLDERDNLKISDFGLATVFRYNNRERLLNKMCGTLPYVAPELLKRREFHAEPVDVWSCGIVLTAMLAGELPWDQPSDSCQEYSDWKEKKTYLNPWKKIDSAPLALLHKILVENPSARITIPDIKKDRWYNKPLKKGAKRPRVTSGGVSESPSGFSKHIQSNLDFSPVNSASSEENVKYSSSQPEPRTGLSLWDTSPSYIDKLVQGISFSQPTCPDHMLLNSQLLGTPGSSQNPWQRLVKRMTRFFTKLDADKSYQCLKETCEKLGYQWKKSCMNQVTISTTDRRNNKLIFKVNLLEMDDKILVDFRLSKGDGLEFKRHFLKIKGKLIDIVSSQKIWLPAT

human Chk2 kinase = human Chk2 kinase (Homo sapiens, UniProt O96017); assay: biochemical
[2] = SW-620, neocarzinostatin 7.5 μM, 2 hours
[3] = SW-620, 2 h, neocarzinostatin 7.5 μM

Sequence of human Chk2 kinase (O96017 whole entry): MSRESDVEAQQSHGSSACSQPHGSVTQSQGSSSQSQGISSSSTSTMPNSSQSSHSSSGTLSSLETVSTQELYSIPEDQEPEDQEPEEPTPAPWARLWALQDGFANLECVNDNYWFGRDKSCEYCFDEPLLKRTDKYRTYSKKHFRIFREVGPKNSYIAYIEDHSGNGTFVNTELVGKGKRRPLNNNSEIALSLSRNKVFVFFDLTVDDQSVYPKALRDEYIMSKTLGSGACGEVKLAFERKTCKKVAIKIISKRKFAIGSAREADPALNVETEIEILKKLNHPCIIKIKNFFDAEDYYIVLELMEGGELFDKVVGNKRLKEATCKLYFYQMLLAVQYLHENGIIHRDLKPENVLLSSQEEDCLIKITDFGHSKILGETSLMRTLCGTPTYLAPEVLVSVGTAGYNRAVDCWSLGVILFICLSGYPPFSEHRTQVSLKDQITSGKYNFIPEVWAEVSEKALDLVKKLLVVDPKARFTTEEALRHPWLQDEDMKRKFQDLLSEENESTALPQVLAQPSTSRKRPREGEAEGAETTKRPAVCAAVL

IC50 (human Chk1 kinase) | IC50 (human Chk2 kinase) | IC50 [1, 3] | Structure (SMILES) | IC50 [1, 2] | IC50 (GBM LN18 cells)
– | – | – | CN(C)[C@@H]1CCN(c2ccc(-n3cnc(Nc4cnc(C#N)cn4)c3)c(F)c2)C1 [Example 65, (R)-5-((1-(4-(3-(Dimethylamino)pyrrolidin-1-yl)-2-fluorophenyl)-1H-imidazol-4-yl)amino)pyrazine-2-carbonitrile] | 1000 to 10000 nM | < 1000 nM
< 10 nM | 1000 to 10000 nM | 1000 to 10000 nM | CN1C[C@@H]2CN(c3ccc(-n4cnc(Nc5cnc(C#N)cn5)c4)cc3)C[C@@H]21 [Example 1, 5-((1-(4-((1R,5R)-6-Methyl-3,6-diazabicyclo[3.2.0]heptan-3-yl)phenyl)-1H-imidazol-4-yl)amino)pyrazine-2-carbonitrile] | – | < 1000 nM
< 10 nM | 1000 to 10000 nM | 1000 to 10000 nM | N#Cc1cnc(Nc2cn(-c3ccc(N4C[C@H](N)C5(CC5)C4)cc3)cn2)cn1 [Example 154, (R)-5-((1-(4-(7-Amino-5-azaspiro[2.4]heptan-5-yl)phenyl)-1H-imidazol-4-yl)amino)pyrazine-2-carbonitrile] | – | < 1000 nM
< 10 nM | 1000 to 10000 nM | 1000 to 10000 nM | Cc1nc(-n2cnc(Nc3cnc(C#N)cn3)c2)ccc1N1CC[C@@H](N(C)C)C1 [Example 59, (R)-5-((1-(5-(3-(Dimethylamino)pyrrolidin-1-yl)-6-methylpyridin-2-yl)-1H-imidazol-4-yl)amino)pyrazine-2-carbonitrile] | – | < 1000 nM
< 10 nM | 10000 to 100000 nM | – | N#Cc1cnc(Nc2cn(-c3ccc(N4C[C@@H](F)[C@@H](N)C4)cc3)cn2)cn1 [Example 157, 5-((1-(4-((3S,4R)-3-Amino-4-fluoropyrrolidin-1-yl)phenyl)-1H-imidazol-4-yl)amino)pyrazine-2-carbonitrile] | – | 1000 to 10000 nM
– | – | – | C[C@@H]1C[C@@H](N(C)C)CN1c1ccc(-n2cnc(Nc3cnc(C#N)cn3)c2)cc1 [Example 74, 5-((1-(4-((2R,4R)-4-(Dimethylamino)-2-methylpyrrolidin-1-yl)phenyl)-1H-imidazol-4-yl)amino)pyrazine-2-carbonitrile] | < 1000 nM | < 1000 nM
31.6 to 100 nM | 10000 to 100000 nM | – | CN1C[C@@H]2CN(c3ccc(-n4cnc(Nc5cnc(C#N)cn5)c4)cc3)[C@@H]2C1 [Example 67, 5-((1-(4-((1R,5S)-3-Methyl-3,6-diazabicyclo[3.2.0]heptan-6-yl)phenyl)-1H-imidazol-4-yl)amino)pyrazine-2-carbonitrile] | – | < 1000 nM
100 to 316 nM | > 100000 nM | – | CN(C)[C@@H]1CCN(c2ccc(-n3cnc(Nc4cnc(C#N)cn4)c3)c(C(F)(F)F)c2)C1 [Example 71, (R)-5-((1-(4-(3-(Dimethylamino)pyrrolidin-1-yl)-2-(trifluoromethyl)phenyl)-1H-imidazol-4-yl)amino)pyrazine-2-carbonitrile] | – | < 1000 nM
10 to 31.6 nM | 10000 to 100000 nM | 1000 to 10000 nM | C[C@@]1(N)CCN(c2ccc(-n3cnc(Nc4cnc(C#N)cn4)c3)cc2)C1 [Example 156, (R)-5-((1-(4-(3-Amino-3-methylpyrrolidin-1-yl)phenyl)-1H-imidazol-4-yl)amino)pyrazine-2-carbonitrile] | – | < 1000 nM
< 10 nM | 1000 to 10000 nM | < 1000 nM | CN[C@H]1CN(c2ccc(-n3cnc(Nc4cnc(C#N)cn4)c3)cc2)C[C@H]1F [Example 92, 5-((1-(4-((3R,4S)-3-Fluoro-4-(methylamino)pyrrolidin-1-yl)phenyl)-1H-imidazol-4-yl)amino)pyrazine-2-carbonitrile] | – | < 1000 nM
< 10 nM | 1000 to 10000 nM | – | CN(C)[C@@H]1CCN(c2ccc(-n3cnc(Nc4cnc(C#N)cn4)c3)cc2F)C1 [Example 79, (R)-5-((1-(4-(3-(Dimethylamino)pyrrolidin-1-yl)-3-fluorophenyl)-1H-imidazol-4-yl)amino)pyrazine-2-carbonitrile] | – | < 1000 nM
31.6 to 100 nM | 10000 to 100000 nM | – | CN1C[C@H]2CN(c3ccc(-n4cnc(Nc5cnc(C#N)cn5)c4)cc3)[C@H]2C1 [Example 68, 5-((1-(4-((1S,5R)-3-Methyl-3,6-diazabicyclo[3.2.0]heptan-6-yl)phenyl)-1H-imidazol-4-yl)amino)pyrazine-2-carbonitrile] | – | < 1000 nM
10 to 31.6 nM | 10000 to 100000 nM | – | N#Cc1cnc(Nc2cn(-c3ccc(N4CC(CN)C4)cc3)cn2)cn1 [Example 158, 5-((1-(4-(3-(Aminomethyl)azetidin-1-yl)phenyl)-1H-imidazol-4-yl)amino)pyrazine-2-carbonitrile] | – | 1000 to 10000 nM
10 to 31.6 nM | 10000 to 100000 nM | – | CC(C)N[C@@H]1CCN(c2ccc(-n3cnc(Nc4cnc(C#N)cn4)c3)cc2)C1 [Example 96, (R)-5-((1-(4-(3-(Isopropylamino)pyrrolidin-1-yl)phenyl)-1H-imidazol-4-yl)amino)pyrazine-2-carbonitrile] | – | < 1000 nM
< 10 nM | 1000 to 10000 nM | < 1000 nM | C[C@@H]1C[C@@H](N(C)C)CN1c1ccc(-n2cnc(Nc3cnc(C#N)cn3)c2)nc1 [Example 85, 5-((1-(5-((2R,4R)-4-(Dimethylamino)-2-methylpyrrolidin-1-yl)pyridin-2-yl)-1H-imidazol-4-yl)amino)pyrazine-2-carbonitrile] | – | < 1000 nM
10 to 31.6 nM | 10000 to 100000 nM | – | N#Cc1cnc(Nc2cn(-c3ccc(N4C[C@H](N)[C@@H](F)C4)cc3)cn2)cn1 [Example 152, 5-((1-(4-((3S,4S)-3-Amino-4-fluoropyrrolidin-1-yl)phenyl)-1H-imidazol-4-yl)amino)pyrazine-2-carbonitrile] | – | 1000 to 10000 nM
31.6 to 100 nM | 10000 to 100000 nM | – | CN(C)[C@@H]1CCN(c2cnc(-n3cnc(Nc4cnc(C#N)cn4)c3)cn2)C1 [Example 52, (R)-5-((1-(5-(3-(Dimethylamino)pyrrolidin-1-yl)pyrazin-2-yl)-1H-imidazol-4-yl)amino)pyrazine-2-carbonitrile] | – | 1000 to 10000 nM
316 to 1000 nM | 10000 to 100000 nM | – | CN(C)c1cc(N2CC[C@@H](N(C)C)C2)ccc1-n1cnc(Nc2cnc(C#N)cn2)c1 [Example 83, (R)-5-((1-(2-(Dimethylamino)-4-(3-(dimethylamino)pyrrolidin-1-yl)phenyl)-1H-imidazol-4-yl)amino)pyrazine-2-carbonitrile] | – | 1000 to 10000 nM
10 to 31.6 nM | 10000 to 100000 nM | 1000 to 10000 nM | N#Cc1cnc(Nc2cn(-c3ccc(N4CCC(N5CCC5)C4)cc3)cn2)cn1 (single isomer, unassigned) [Example 113, 5-((1-(4-(3-(Azetidin-1-yl)pyrrolidin-1-yl)phenyl)-1H-imidazol-4-yl)amino)pyrazine-2-carbonitrile] | – | < 1000 nM
100 to 316 nM | 10000 to 100000 nM | – | C[N+](C)([O-])[C@@H]1CCN(c2ccc(-n3cnc(Nc4cnc(C#N)cn4)c3)cc2)C1 [Example 141, (R)-1-(4-(4-((5-Cyanopyrazin-2-yl)amino)-1H-imidazol-1-yl)phenyl)-N,N-dimethylpyrrolidin-3-amine oxide] | – | 1000 to 10000 nM
– | – | – | COc1cc(N2CC[C@@H](N(C)C)C2)ccc1-n1cnc(Nc2cnc(C#N)cn2)c1 [Example 47, (R)-5-((1-(4-(3-(Dimethylamino)pyrrolidin-1-yl)-2-methoxyphenyl)-1H-imidazol-4-yl)amino)pyrazine-2-carbonitrile] | < 1000 nM | < 1000 nM

Structure (SMILES) | IC50 (human Chk1 kinase) | IC50 (human Chk2 kinase) | IC50 [1, 3] | IC50 [1, 2] | IC50 (GBM LN18 cells)
CN(C)[C@]1(C)CCN(c2ccc(-n3cnc(Nc4cnc(C#N)cn4)c3)cc2)C1 [Example 78, (R)-5-((1-(4-(3-(Dimethylamino)-3-methylpyrrolidin-1-yl)phenyl)-1H-imidazol-4-yl)amino)pyrazine-2-carbonitrile] | < 10 nM | 1000 to 10000 nM | – | < 1000 nM | < 1000 nM
C[C@H]1CN(c2ccc(-n3cnc(Nc4cnc(C#N)cn4)c3)cc2)C[C@@H]1N(C)C [Example 73, 5-((1-(4-((3R,4S)-3-(Dimethylamino)-4-methylpyrrolidin-1-yl)phenyl)-1H-imidazol-4-yl)amino)pyrazine-2-carbonitrile] | < 10 nM | 1000 to 10000 nM | – | < 1000 nM | < 1000 nM
[2H]C([2H])([2H])N([C@@H]1CCN(c2ccc(-n3cnc(Nc4cnc(C#N)cn4)c3)cc2)C1)C([2H])([2H])[2H] [Example 84, (R)-5-((1-(4-(3-(Bis(methyl-d3)amino)pyrrolidin-1-yl)phenyl)-1H-imidazol-4-yl)amino)pyrazine-2-carbonitrile] | < 10 nM | – | – | 1000 to 10000 nM | < 1000 nM
